Measured values reported in ChEMBL document CHEMBL3046172, “Synthesis and Insecticidal Activity of New 2- and 6-Substituted 4-Acetoxyquinolines” (1997).

Experiments:
Assay type in all cases: functional
Bombyx mori [1] = assay: Insecticidal activity against Bombyx mori Syogetsu x Syunrei third-instar larvae assessed as insect mortality upon topical application at 1 ug measured 48 hr post compound treatment
Bombyx mori [2] = assay: Insecticidal activity against Bombyx mori Syogetsu x Syunrei third-instar larvae assessed as insect mortality upon topical application at 0.3 ug measured 48 hr post compound treatment
Bombyx mori [3] = assay: Insecticidal activity against Bombyx mori Syogetsu x Syunrei third-instar larvae assessed as insect mortality upon topical application at 3 ug measured 48 hr post compound treatment
Bombyx mori [4] = assay: Insecticidal activity against Bombyx mori Syogetsu x Syunrei third-instar larvae assessed as insect mortality upon topical application at 10 ug measured 48 hr post compound treatment
Plutella xylostella [5] = assay: Insecticidal activity against Plutella xylostella (diamondback moth) third-instar larvae reared on cabbage plants leaves pre-treated with 1000 ppm compound assessed as insect mortality measured 2 days post compound treatment
Spodoptera litura [6] = assay: Insecticidal activity against Spodoptera litura third-instar larvae reared on artificial diets of Insecta LF assessed as insect mortality at 250 ppm measured 2 days post compound treatment; conditions: 48 h
Plutella xylostella [7] = assay: Insecticidal activity against Plutella xylostella (diamondback moth) third-instar larvae reared on cabbage plants leaves pre-treated with 250 ppm compound assessed as insect mortality measured 2 days post compound treatment
Plutella xylostella [8] = assay: Insecticidal activity against Plutella xylostella (diamondback moth) third-instar larvae reared on cabbage plants leaves pre-treated with 500 ppm compound assessed as insect mortality measured 2 days post compound treatment
Spodoptera litura [9] = assay: Insecticidal activity against Spodoptera litura third-instar larvae reared on artificial diets of Insecta LF assessed as insect mortality at 125 ppm measured 2 days post compound treatment; conditions: 48 h
Spodoptera litura [10] = assay: Insecticidal activity against Spodoptera litura third-instar larvae reared on artificial diets of Insecta LF assessed as insect mortality at 500 ppm measured 2 days post compound treatment; conditions: 48 h
Bombyx mori [11] = assay: Insecticidal activity against Bombyx mori Gunpo x Shugyoku third-instar larvae assessed as insect mortality upon topical application at 10 ug measured 48 hr post compound treatment

Q: Which mortality (Bombyx mori [1]) does the source give for `CCCCCCC/C=C/c1nc2ccccc2c(OC(C)=O)c1C` here?
A: Its mortality is 76%.

Q: And the mortality (Bombyx mori [2])?
A: The mortality was 70%.

Q: What about the mortality (Bombyx mori [3]) of the same compound?
A: Its mortality is 100%.

Q: Which results are given for `CCCCCCCCCc1nc2ccccc2c(OC(C)=O)c1C`?
A: mortality (Bombyx mori [4]): 100%; mortality (Bombyx mori [1]): 15%; mortality (Bombyx mori [3]): 100%

Q: With `CCCCCCCc1nc2ccccc2c(OC(C)=O)c1C` as the compound, how does the mortality (Bombyx mori [4]) read?
A: The mortality was 100%.

Q: And the mortality (Bombyx mori [1])?
A: The mortality was 10%.

Q: What about the mortality (Bombyx mori [2]) of the same compound?
A: The mortality was 0%.

Q: What about the mortality (Bombyx mori [3]) of the same compound?
A: Its mortality is 100%.

Q: Which mortality (Bombyx mori [4]) does the source give for `CCCCCCc1nc2ccccc2c(OC(C)=O)c1C` here?
A: Its mortality is 100%.

Q: What about the mortality (Bombyx mori [1]) of the same compound?
A: Its mortality is 10%.

Q: What about the mortality (Bombyx mori [3]) of the same compound?
A: Its mortality is 100%.

Q: How did the mortality (Bombyx mori [4]) turn out when `CCCCCc1nc2ccccc2c(OC(C)=O)c1C` was run?
A: The mortality was 100%.

Q: And the mortality (Bombyx mori [1])?
A: Its mortality is 0%.

Q: What about the mortality (Bombyx mori [3]) of the same compound?
A: Its mortality is 40%.

Q: For `CCCCc1nc2ccccc2c(OC(C)=O)c1C`, which mortality (Bombyx mori [4]) is on record?
A: The mortality was 95%.

Q: What about the mortality (Bombyx mori [3]) of the same compound?
A: Its mortality is 35%.

Q: With `CCCc1nc2ccccc2c(OC(C)=O)c1C` as the compound, how does the mortality (Bombyx mori [4]) read?
A: Its mortality is 0%.

Q: What about the mortality (Bombyx mori [3]) of the same compound?
A: Its mortality is 0%.

Q: Which results are given for `CCc1nc2ccccc2c(OC(C)=O)c1C`?
A: mortality (Bombyx mori [1]): 95%; mortality (Bombyx mori [2]): 0%; mortality (Bombyx mori [3]): 100%

Q: `CC(=O)Oc1c(C)c(C)nc2ccccc12` was tested. Which mortality (Bombyx mori [4]) did it give?
A: The mortality was 100%.

Q: And the mortality (Bombyx mori [1])?
A: The mortality was 0%.

Q: And the mortality (Bombyx mori [3])?
A: The mortality was 71%.

Q: With `CCCCCCCCCc1nc2ccc(F)cc2c(OC(C)=O)c1C` as the compound, how does the mortality (Bombyx mori [4]) read?
A: The mortality was 10%.

Q: With `CCCCCCc1nc2ccc(F)cc2c(OC(C)=O)c1C` as the compound, how does the mortality (Bombyx mori [4]) read?
A: The mortality was 75%.

Q: And the mortality (Bombyx mori [1])?
A: Its mortality is 0%.

Q: And the mortality (Bombyx mori [3])?
A: The mortality was 60%.

Q: How did the mortality at 1000 ppm (Plutella xylostella [5]) turn out when `CCc1nc2ccc(F)cc2c(OC(C)=O)c1C` was run?
A: Its mortality at 1000 ppm is 97.5%.

Q: What about the mortality at 250 ppm (Spodoptera litura [6]) of the same compound?
A: Its mortality at 250 ppm is 90%.

Q: What about the mortality at 250 ppm (Plutella xylostella [7]) of the same compound?
A: Its mortality at 250 ppm is 42.5%.

Q: What about the mortality (Bombyx mori [1]) of the same compound?
A: Its mortality is 100%.

Q: What about the mortality at 500 ppm (Plutella xylostella [8]) of the same compound?
A: Its mortality at 500 ppm is 70%.

Q: What about the mortality at 125 ppm (Spodoptera litura [9]) of the same compound?
A: The mortality at 125 ppm was 55%.

Q: What about the mortality (Bombyx mori [2]) of the same compound?
A: The mortality was 70%.

Q: What about the mortality at 500 ppm (Spodoptera litura [10]) of the same compound?
A: The mortality at 500 ppm was 100%.

Q: What does the source list for `CC(=O)Oc1c(C)c(C)nc2ccc(F)cc12`?
A: mortality (Bombyx mori [1]): 95%; mortality (Bombyx mori [2]): 0%; mortality (Bombyx mori [3]): 100%

Q: For `C=Cc1nc2ccccc2c(OC(C)=O)c1C`, which mortality (Bombyx mori [11]) is on record?
A: The mortality was 0%.

Q: `C/C=C/c1nc2ccccc2c(OC(C)=O)c1C` was tested. Which mortality (Bombyx mori [4]) did it give?
A: The mortality was 0%.

Q: How did the mortality (Bombyx mori [4]) turn out when `CCCCCCC/C=C/c1nc2ccc(F)cc2c(OC(C)=O)c1C` was run?
A: The mortality was 0%.

Q: Which results are given for `CCCCCCC/C=C\c1nc2ccc(F)cc2c(OC(C)=O)c1C`?
A: mortality (Bombyx mori [4]): 100%; mortality (Bombyx mori [1]): 10%; mortality (Bombyx mori [2]): 0%; mortality (Bombyx mori [3]): 100%
